The text below walks through data of ChEMBL document CHEMBL4229402, “Kava analogues as agents for treatment of periodontal diseases: Synthesis and initial biological evaluation” (Bioorg Med Chem Lett, 2018).

Assay [1] concerns BMDM. As to the kind of experiment: Antiperiodontic activity in mouse bone marrow macrophages assessed as reduction in Porphyromonas gingivalis-induced TNFalpha levels at 100 ug/ml after 4 hrs by ELISA. Format: functional. In general terms: In an ELISA, binding on a coated surface is turned into a signal by an enzyme label.
In assay [2] the test system is BMDM. As to the kind of experiment: Antiperiodontic activity in mouse bone marrow macrophages assessed as reduction in Porphyromonas gingivalis-induced TNFalpha levels at 20 to 100 ug/ml after 4 hrs by ELISA. Format: functional.

Calls of active or inactive are those of the source. The calls are words filed in the database; no cut-off is given here.

With `COC1=CC(=O)O[C@@H](/C=C/c2ccccc2)C1`, in assay [1], the result was Active.

On to `CCOC(=O)C1C(=O)C=C(OC(=O)c2ccccc2)CC1(C)C` (configuration not stated), for which the result in assay [2] was Active.
